Reference: PubChem BioAssay (NCI)
“And” between values parts separate entries of the source, which are not always exact repeats. Equal values may be shown once.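 Where inhibition never reached the appropriate level, the endpoint shown equals the highest concentration tested. Otherwise, values were interpolated linearly from a five-concentration, 48-hour dose response in 96-well plates. The concentration for 50% growth inhibition is given as GI50. TGI is the concentration that stops growth completely.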

What was measured:
Assay in all cases: growth of human tumour cells (NCI), 48 h
HCC-2998 colon = tested on: HCC-2998 colon
SK-MEL-28 melanoma = tested on: SK-MEL-28 melanoma
RPMI-8226 leukemia = tested on: RPMI-8226 leukemia
EKVX NSCLC = tested on: EKVX NSCLC
COLO 205 colon = tested on: COLO 205 colon
SN12C renal = tested on: SN12C renal
PC-3 prostate = tested on: PC-3 prostate
MCF7 breast = tested on: MCF7 breast
CAKI-1 renal = tested on: CAKI-1 renal
HOP-92 NSCLC = tested on: HOP-92 NSCLC

## CCOC(=O)C(C)(C)Oc1ccc2c(=O)cc(-c3ccccc3)oc2c1
HCC-2998 colon
  TGI: > 100 µM
SK-MEL-28 melanoma
  TGI: 30.7 µM
RPMI-8226 leukemia
  TGI: 37.8 µM
EKVX NSCLC
  TGI: 84.8 µM
COLO 205 colon
  TGI: 36.8 µM
SN12C renal
  TGI: > 100 µM

## COC(=O)c1ccc(-c2nc(C#N)c(N)o2)cc1
SK-MEL-28 melanoma
  TGI: > 100 µM
PC-3 prostate
  TGI: > 100 µM
RPMI-8226 leukemia
  TGI: > 100 µM
MCF7 breast
  TGI: > 100 µM
EKVX NSCLC
  TGI: > 100 µM
COLO 205 colon
  TGI: > 100 µM
CAKI-1 renal
  TGI: > 100 µM
SN12C renal
  TGI: > 100 µM

## CC1(O)C=CC2CCC1C2O (stereo unspecified)
SK-MEL-28 melanoma
  TGI: > 100 µM
RPMI-8226 leukemia
  TGI: 53.5 µM
EKVX NSCLC
  TGI: > 100 µM
COLO 205 colon
  TGI: 75.7 µM
CAKI-1 renal
  TGI: > 100 µM
SN12C renal
  TGI: > 100 µM

## CCCn1c(C23CC4CC(CC(C4)C2)C3)nc2ccc(Cl)cc2c1=O
SK-MEL-28 melanoma
  TGI: > 100 µM
PC-3 prostate
  TGI: > 100 µM
RPMI-8226 leukemia
  TGI: > 100 µM
MCF7 breast
  TGI: > 100 µM
EKVX NSCLC
  TGI: 95.4 µM
HOP-92 NSCLC
  TGI: > 100 µM
COLO 205 colon
  TGI: > 100 µM
CAKI-1 renal
  TGI: > 100 µM
SN12C renal
  TGI: > 100 µM

## N#CCCC1C(C#N)C2CC1C1C3C=CC(C3)C21 (stereo unspecified)
HCC-2998 colon
  TGI: > 100 µM
SK-MEL-28 melanoma
  TGI: > 100 µM
PC-3 prostate
  TGI: > 100 µM
RPMI-8226 leukemia
  TGI: > 100 µM
MCF7 breast
  TGI: > 100 µM
EKVX NSCLC
  TGI: > 100 µM
HOP-92 NSCLC
  TGI: > 100 µM
COLO 205 colon
  TGI: > 100 µM
CAKI-1 renal
  TGI: > 100 µM

## C#CCNC(Cc1cnc[nH]1)C(=O)O (stereo unspecified)
SK-MEL-28 melanoma
  TGI: > 100 µM
PC-3 prostate
  TGI: > 100 µM
RPMI-8226 leukemia
  TGI: > 100 µM
MCF7 breast
  TGI: > 100 µM
EKVX NSCLC
  TGI: > 100 µM
HOP-92 NSCLC
  TGI: > 100 µM
COLO 205 colon
  TGI: > 100 µM
CAKI-1 renal
  TGI: > 100 µM
SN12C renal
  TGI: > 100 µM

## O=C(c1ccc2ccccc2c1)C1S(=O)(=O)OCCOS1(=O)=O
HCC-2998 colon
  TGI: > 100 µM
SK-MEL-28 melanoma
  TGI: > 100 µM
PC-3 prostate
  TGI: > 100 µM
RPMI-8226 leukemia
  TGI: > 100 µM
MCF7 breast
  TGI: > 100 µM
EKVX NSCLC
  TGI: > 100 µM
COLO 205 colon
  TGI: > 100 µM
CAKI-1 renal
  TGI: > 100 µM
SN12C renal
  TGI: > 100 µM

## O=C(C1=C(C(=O)c2ccccc2)SC2(S1)C(C(=O)c1ccccc1)=C(C(=O)c1ccccc1)Sc1c2ssc1=O)c1ccccc1
HCC-2998 colon
  TGI: > 100 µM
SK-MEL-28 melanoma
  TGI: > 100 µM
PC-3 prostate
  TGI: > 100 µM
MCF7 breast
  TGI: > 100 µM
EKVX NSCLC
  TGI: > 100 µM
HOP-92 NSCLC
  TGI: > 100 µM
COLO 205 colon
  TGI: > 100 µM
CAKI-1 renal
  TGI: > 100 µM
SN12C renal
  TGI: > 100 µM

## CCC1(CC)C(=O)CC[C@@]2(C)C1=CC[C@H]1[C@@H]3CC[C@H](O)[C@@]3(C)CC[C@@H]12
SK-MEL-28 melanoma
  TGI: > 100 µM
PC-3 prostate
  TGI: > 100 µM
RPMI-8226 leukemia
  TGI: 32.4 µM
EKVX NSCLC
  TGI: > 100 µM
HOP-92 NSCLC
  TGI: > 100 µM
COLO 205 colon
  TGI: 88.9 µM
CAKI-1 renal
  TGI: > 100 µM
SN12C renal
  TGI: 31.6 µM

## COc1ccc(/C=C/c2cc(O)cc(OC)c2)cc1
SK-MEL-28 melanoma
  TGI: > 100 µM
PC-3 prostate
  TGI: > 100 µM
RPMI-8226 leukemia
  TGI: 78.7 µM
MCF7 breast
  TGI: > 100 µM
EKVX NSCLC
  TGI: > 100 µM
HOP-92 NSCLC
  TGI: > 100 µM
COLO 205 colon
  TGI: > 100 µM
CAKI-1 renal
  TGI: > 100 µM
SN12C renal
  TGI: > 100 µM

## Cc1ccc(S(=O)(=O)n2cncc2CO)cc1
HCC-2998 colon
  TGI: > 100 µM
SK-MEL-28 melanoma
  TGI: > 100 µM
PC-3 prostate
  TGI: > 100 µM
RPMI-8226 leukemia
  TGI: > 100 µM
MCF7 breast
  TGI: > 100 µM
EKVX NSCLC
  TGI: > 100 µM
COLO 205 colon
  TGI: > 100 µM
CAKI-1 renal
  TGI: > 100 µM
SN12C renal
  TGI: > 100 µM

## CN1CCn2c(Br)ccc2C1=O
HCC-2998 colon
  TGI: > 100 µM
SK-MEL-28 melanoma
  TGI: > 100 µM
RPMI-8226 leukemia
  TGI: > 100 µM
EKVX NSCLC
  TGI: > 100 µM
COLO 205 colon
  TGI: > 100 µM
CAKI-1 renal
  TGI: > 100 µM
SN12C renal
  TGI: > 100 µM

## COc1cc(C2C3=C(CCC3=O)Oc3cc4c(cc32)OCO4)cc(OC)c1OC (stereo unspecified)
SK-MEL-28 melanoma
  TGI: > 100 µM
EKVX NSCLC
  TGI: > 100 µM
HOP-92 NSCLC
  TGI: 6.47 µM
COLO 205 colon
  TGI: 1.81 µM
CAKI-1 renal
  TGI: 30.3 µM
SN12C renal
  TGI: > 100 µM

## CC(C)CCC[C@@H](C)[C@H]1CC[C@H]2[C@@H]3CC=C4C[C@@H](OC(=O)c5cccc6c(=O)c7ccccc7[nH]c56)CC[C@]4(C)[C@H]3CC[C@]12C
HCC-2998 colon
  TGI: > 75 µM
SK-MEL-28 melanoma
  TGI: > 75 µM
PC-3 prostate
  TGI: > 75 µM
RPMI-8226 leukemia
  TGI: > 75 µM
MCF7 breast
  TGI: > 75 µM
EKVX NSCLC
  TGI: > 75 µM
HOP-92 NSCLC
  TGI: > 75 µM
COLO 205 colon
  TGI: > 75 µM
SN12C renal
  TGI: > 75 µM

## CCOC(=O)c1ccc2nc(NC(=O)COC(=O)CSc3nc(C)cc(C)n3)sc2c1
SK-MEL-28 melanoma
  TGI: > 100 µM
PC-3 prostate
  TGI: > 100 µM
RPMI-8226 leukemia
  TGI: > 100 µM
MCF7 breast
  TGI: > 100 µM
EKVX NSCLC
  TGI: 62 µM
HOP-92 NSCLC
  TGI: > 100 µM
COLO 205 colon
  TGI: > 100 µM
CAKI-1 renal
  TGI: > 100 µM
SN12C renal
  TGI: > 100 µM

## CC1(C)O[C@@H](CO)[C@H]([C@@]23OC[C@H]4OC(C)(C)OC4[C@@H]2OC(C)(C)O3)O1 (stereo partly specified)
HCC-2998 colon
  TGI: > 100 µM
SK-MEL-28 melanoma
  TGI: > 100 µM
PC-3 prostate
  TGI: > 100 µM
RPMI-8226 leukemia
  TGI: > 100 µM
MCF7 breast
  TGI: > 100 µM
EKVX NSCLC
  TGI: > 100 µM
HOP-92 NSCLC
  TGI: > 100 µM
COLO 205 colon
  TGI: > 100 µM
SN12C renal
  TGI: > 100 µM

## CN(C(=O)C1(C(=O)C=[N+]=[N-])CC1)c1ccccc1
HCC-2998 colon
  TGI: > 100 µM
SK-MEL-28 melanoma
  TGI: > 100 µM
PC-3 prostate
  TGI: > 100 µM
RPMI-8226 leukemia
  TGI: > 100 µM
MCF7 breast
  TGI: > 100 µM
EKVX NSCLC
  TGI: > 100 µM
COLO 205 colon
  TGI: > 100 µM
SN12C renal
  TGI: > 100 µM

## CCOC(=O)c1ccc(C(=O)C(C(C)=O)C(=O)OC(C)(C)C)n1C (stereo unspecified)
HCC-2998 colon
  TGI: > 100 µM
SK-MEL-28 melanoma
  TGI: > 100 µM
PC-3 prostate
  TGI: > 100 µM
RPMI-8226 leukemia
  TGI: > 100 µM
MCF7 breast
  TGI: > 100 µM
EKVX NSCLC
  TGI: > 100 µM
COLO 205 colon
  TGI: > 100 µM
CAKI-1 renal
  TGI: > 100 µM
SN12C renal
  TGI: > 100 µM

## CCOc1ccc2[nH]c3c(C)c4cc[n+](C)cc4c(C)c3c2c1
HCC-2998 colon
  TGI: 10.6 µM and 16.2 µM
SK-MEL-28 melanoma
  TGI: 7.9 µM and 13 µM
RPMI-8226 leukemia
  TGI: > 86.8 µM
EKVX NSCLC
  TGI: > 100 µM
HOP-92 NSCLC
  TGI: 13.1 µM and 25.3 µM
COLO 205 colon
  GI50: 0.791 µM and 1.6 µM
  TGI: 2.62 µM and 4.69 µM
CAKI-1 renal
  TGI: > 35.3 µM
SN12C renal
  TGI: 1.25 µM and 2.69 µM

## CC(C)(CO)CNc1nc(N)nc(Cl)c1N
HCC-2998 colon
  TGI: > 100 µM
SK-MEL-28 melanoma
  TGI: > 100 µM
PC-3 prostate
  TGI: > 100 µM
MCF7 breast
  TGI: > 100 µM
EKVX NSCLC
  TGI: > 100 µM
HOP-92 NSCLC
  TGI: > 100 µM
COLO 205 colon
  TGI: > 100 µM
CAKI-1 renal
  TGI: > 100 µM
SN12C renal
  TGI: > 100 µM

## Nc1nc(Cl)cc(N=Nc2ccccc2)n1
SK-MEL-28 melanoma
  TGI: > 100 µM
RPMI-8226 leukemia
  TGI: > 100 µM
MCF7 breast
  TGI: > 100 µM
EKVX NSCLC
  TGI: > 100 µM
HOP-92 NSCLC
  TGI: 7.53 µM
COLO 205 colon
  TGI: > 100 µM
CAKI-1 renal
  TGI: > 100 µM
SN12C renal
  TGI: > 100 µM

## c1ccc(CCN2CCCCCC2)nc1
SK-MEL-28 melanoma
  TGI: > 100 µM
PC-3 prostate
  TGI: > 100 µM
RPMI-8226 leukemia
  TGI: > 100 µM
MCF7 breast
  TGI: > 100 µM
EKVX NSCLC
  TGI: > 100 µM
HOP-92 NSCLC
  TGI: > 100 µM
COLO 205 colon
  TGI: > 100 µM
CAKI-1 renal
  TGI: > 100 µM
SN12C renal
  TGI: > 100 µM

## OCC1OC(n2cnc3cccnc32)CC1O (stereo unspecified)
HCC-2998 colon
  TGI: > 100 µM
SK-MEL-28 melanoma
  TGI: > 100 µM
PC-3 prostate
  TGI: > 100 µM
MCF7 breast
  TGI: > 100 µM
EKVX NSCLC
  TGI: > 100 µM
HOP-92 NSCLC
  TGI: > 100 µM
COLO 205 colon
  TGI: > 100 µM
CAKI-1 renal
  TGI: > 100 µM
SN12C renal
  TGI: > 100 µM

## CC(C)(C)N=C1CC(C)(C)c2ccccc2C(=Nc2ccccc2)S1
HCC-2998 colon
  TGI: > 100 µM
SK-MEL-28 melanoma
  TGI: > 100 µM
RPMI-8226 leukemia
  TGI: 41.5 µM
EKVX NSCLC
  TGI: > 100 µM
COLO 205 colon
  TGI: 49.6 µM
CAKI-1 renal
  TGI: > 100 µM
SN12C renal
  TGI: > 100 µM

## OC(c1ccc(Cl)cc1)(c1ccc(Cl)cc1)C(O)(c1ccc(Cl)cc1)c1ccc(Cl)cc1
HCC-2998 colon
  GI50: 2.56 µM
  TGI: > 100 µM
PC-3 prostate
  GI50: 3.25 µM
  TGI: > 100 µM
RPMI-8226 leukemia
  GI50: 3.27 µM
  TGI: > 100 µM
MCF7 breast
  GI50: 3.27 µM
  TGI: > 100 µM
EKVX NSCLC
  GI50: 3.14 µM
  TGI: > 100 µM
SN12C renal
  GI50: 3.06 µM
  TGI: > 100 µM
